Data taken from patent publication US20200129561A1, “DELIVERY OF AUTOLOGOUS CELLS COMPRISING MATRIX METALLOPROTEINASE FOR TREATMENT OF SCLERODERMA” (Intrexon Corporation, priority 2017, published 2020).

Assay: Nonclinical studies of veledimex control of target protein expression: tissue level of veledimex
Assay type: in vivo
Conditions: oral administration; other target proteins
Source text: MMP-1 expression levels were undetected after 10 days post-injection.

levels of veledimex in the tissue at which maximal expression of target protein can be achieved: approximately 250 ng/mL
Structure (SMILES): CCC[C@@H](N(NC(=O)c1cccc(OC)c1CC)C(=O)c1cc(C)cc(C)c1)C(C)(C)C [veledimex, 3,5-dimethyl-benzoic acid (R)—N-(1-tert-butyl-butyl)-N′-(2-ethyl-3-methoxy-benzoyl)-hydrazide]
